pEC50: −log10 of the molar value. “Also recorded” adds a separate entry of the source.
Assays:
[1] = target: T1, rodent FXR (Mus musculus, UniProt Q60641); experiment: FXR transactivation in transfected CV-1 cells, hsp70 ecdysone receptor response element reporter; assay type: cell-based
T1 construct: expressed in transfected cells; host or cells: CV-1
T1 sequence (Q60641 1-488): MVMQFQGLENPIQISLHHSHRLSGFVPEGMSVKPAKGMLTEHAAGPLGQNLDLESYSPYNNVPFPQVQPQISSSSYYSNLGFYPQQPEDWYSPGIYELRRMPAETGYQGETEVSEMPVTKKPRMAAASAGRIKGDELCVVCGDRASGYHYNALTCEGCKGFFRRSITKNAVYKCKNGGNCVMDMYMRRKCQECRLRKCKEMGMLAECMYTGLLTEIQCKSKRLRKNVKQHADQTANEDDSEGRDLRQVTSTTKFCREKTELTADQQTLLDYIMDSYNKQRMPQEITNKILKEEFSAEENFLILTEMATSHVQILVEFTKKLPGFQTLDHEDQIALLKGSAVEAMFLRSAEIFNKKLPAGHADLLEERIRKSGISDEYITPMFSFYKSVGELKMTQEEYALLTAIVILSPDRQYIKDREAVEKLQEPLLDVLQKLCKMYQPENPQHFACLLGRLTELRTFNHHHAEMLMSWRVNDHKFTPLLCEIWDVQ
From the text: The full-length coding regions for human LRH-1 (GenBank AB019246) and human SHP-1 (GenBank L76571) were amplified by PCR and cloned into pSG5, creating pSG5-hLRH-1 and pSG5-hSHP-1, respectively. A consensus Kozak sequence was created during amplification. […] Underlined residues are those which have been mutated from the wild-type sequence. […] VP16-nuclear receptor chimeras contained the 80-amino acid herpes virus VP16 transactivation domain linked to the nuclear receptor ligand binding domain in a modified pSG5 expression vector.
Transient transfection of CV-1 cells was performed as described previously (Jones, S. A. et al. 2000. Mol. Endocrinol. 14:27-39). Typically, transfection mixes contained 2-5 ng receptor expression vector, 20 ng reporter construct, and 8 ng p -actin-SPAP. The amount of DNA used in each transfection was adjusted to 80 ng with carrier plasmid (pBluescript, Stratagene, La Jolla, Calif.). Cells were maintained for 24 hours in the presence of drug (added as a 1000× stock in dimethyl sulfoxide) in DMEM/F-12 nutrient mixture containing 10% charcoal-stripped, delipidated calf serum. An aliquot of medium was assayed for SPAP activity and the cells lysed prior to determination of luciferase expression. Luciferase activities were normalized to SPAP. […]

[2] = tested on: SHP-1 expression; experiment: SHP-1 expression in primary human hepatocytes (Northern blot); assay type: cell-based; conditions: 48 hours; GW4064 0.1-10 μM, chenodeoxycholic acid 1-100 μM
Protocol: (§1) Control cultures received vehicle alone. Cells were cultured for a further 48 hours prior to harvest and total RNA isolated using a commercially available reagent (Trizol, Life Technologies Inc., Gaithersburg, Md.) according to the manufacturer's instructions. Total RNA (10 μg) was resolved on a 1% agarose/2.2 M formaldehyde denaturing gel and transferred to a nylon membrane (Hybond N+, Amersham Pharmacia Biotech Inc., Piscataway, N.J.). Blots were hybridized with ^32p-labeled cDNAs corresponding to human SHP-1, human CYP7A (bases 99 to 1564, GenBank M93133), mouse SHP-1 (bases 30 to 783, GenBank L76567), or rat CYP7A (bases 235 to 460, GenBank J05460). The SHP-1 cDNA used in these experiments encodes the full-length human SHP-1 protein (amino acids 1-260) as described in Seol et al. (1996 Science 272:1336), Subsequently, blots were stripped and reprobed with a radiolabeled -actin cDNA (Clontech, Palo Alto, Calif.).

[3] = tested on: CYP7A expression; experiment: CYP7A expression in primary human hepatocytes (Northern blot); assay type: cell-based; conditions: 48 hours; GW4064 0.1-10 μM, chenodeoxycholic acid 1-100 μM
Protocol: as §1, with “Primary human hepatocytes and rat hepatocytes (1.5×10^6 cells) were cultured on […]-coated six well plates in serum-free Williams' E medium supplemented with 100 nM dexamethasone, 100 U/ml penicillin G, 100 μg/ml streptomycin, and insulin-transferrin-selenium (ITS-G, Life Technologies, Inc., Gaithersburg, Md.). […] Control” for “Control”

[4] = tested on: CYP7A expression; experiment: Liver CYP7A expression in treated rats; assay type: in vivo, rat; conditions: 30 mg/kg by gavage twice a day for 7 days
Protocol: This decrease was still measurable despite the fact that the animals had been maintained on a normal light cycle and sacrificed during the daytime when CYP7A levels are known to be quite low.
(§2) Male Fisher rats were obtained from Charles River Laboratories Inc. (Raleigh, N.C.) and maintained on a 12 hour light/12 hour dark cycle. Animals were allowed food and chow ad libitum. […] Livers were excised and snap-frozen in liquid nitrogen. Differential gene expression analysis was performed by Curagen Corp. (New Haven, Conn.).

[5] = tested on: rat SHP-1 promoter; experiment: SHP-1 promoter reporter in HepG2 cells transfected with FXR expression plasmid; assay type: cell-based
[6] = tested on: human SHP-1 promoter; experiment: as above; assay type: cell-based
[7] = tested on: SHP-1 expression; experiment: SHP-1 expression in primary rat hepatocytes (Northern blot); assay type: cell-based; conditions: 48 hours; GW4064 0.1-10 μM
Protocol: as §1, with “Primary human hepatocytes and rat hepatocytes (1.5×10^6 cells) were cultured on […]-coated six well plates in serum-free Williams' E medium supplemented with 100 nM dexamethasone, 100 U/ml penicillin G, 100 μg/ml streptomycin, and insulin-transferrin-selenium (ITS-G, Life Technologies, Inc., Gaithersburg, Md.). […] Control” for “Control”

[8] = tested on: SHP-1 expression; experiment: Liver SHP-1 expression in treated rats; assay type: in vivo, rat; conditions: 30 mg/kg by gavage twice a day for 7 days
Protocol: Direct regulation of SHP-1 by FXR was confirmed in experiments in HepG2 cells transfected with an FXR expression plasmid and reporter plasmids under the control of either the rat or human SHP-1 promoter.
as §2

pEC50 [1]	SMILES	SHP-1 expression in human hepatocytes [2]	CYP7A expression in human hepatocytes [3]	CYP7A expression levels versus vehicle treated rats [4]	reporter activity, rat SHP-1 promoter [5]	reporter activity, human SHP-1 promoter [6]	SHP-1 expression in rat hepatocytes [7]	SHP-1 expression in liver RNA versus vehicle-treated rats [8]
7.10	CC(C)c1onc(-c2c(Cl)cccc2Cl)c1COc1ccc(/C=C/c2cccc(C(=O)O)c2)c(Cl)c1 [GW4064]	markedly increased SHP-1 expression in a dose-dependent manner	decrease CYP7A expression in a dose dependent fashion; also recorded: repressed CYP7A expression at the same concentrations that were required for induction of SHP-1 expression	decrease in CYP7A expression levels	marked induction of reporter activity	marked induction of reporter activity	markedly increased SHP-1 expression in a dose-dependent manner	six-fold increase
–	C[C@H](CCC(=O)O)[C@H]1CC[C@H]2[C@@H]3[C@H](O)C[C@@H]4C[C@H](O)CC[C@]4(C)[C@H]3CC[C@]12C [chenodeoxycholic acid, reference compound]	much less potent than GW4064	repressed CYP7A expression at the same concentrations that were required for induction of SHP-1 expression	–	–	–	–	–

— patent publication US20040038862A1, “Identification of new therapeutic targets for modulating bile acid synthesis” (priority 2003, published 2004)
